Key:
Conditions in all cases: 25 µM pACP, 24 h, maintenance medium 1% FBS, ratio of viability to vehicle (PBS), at least three technical repetitions
MDA-MB-436 = test: MTT primary screening of anticancer activity, MDA-MB-436; type: cell-based
From the text: (§1) We successfully chemically synthesized 40 pACPs for the purpose of in vitro or in vivo characterization of their potential anticancer efficacy. In the initial step, we conducted an in vitro primary screen of these 40 pACPs using a panel of 16 different cancer cell lines, including four human CRC lines (HT29, Caco2, HCT116, and […]), as well as 12 other cancer models (Table S4, Supporting Information). We deliberately selected a diverse panel of cell lines to assess the effect of pACPs across various genetic backgrounds. Briefly, the cancer cells were cultured in specific media (details provided in the Experimental Section) and then treated with pACPs at a final concentration of 25 µM. Peptides with minimum effective inhibition concentrations >25 µM were considered non‐ACPs. After exposure to pACPs, the survival rate of the cancer cells was measured using the MTT assay. Remarkably, 39 out of the 40 pACPs (97.5%) induced at least 20% inhibition in at least one cell line (Figure 3a and Table S5, Supporting Information). […] Thus, our method successfully identified pACPs with a very high rate of anticancer effects across various cancer cell lines.
(§2) To evaluate the activity of the 40 potentially effective pACPs, a panel of 16 cancer cell lines was treated, including human CRC cell lines (HT29, Caco‐2, HCT116). Details of the cell lines used, respective media, and culture conditions were presented in Table S1 (Supporting Information). Once the cells reached 60% confluence, it was incubated with each candidate peptide at a concentration of 25 µM pACPs for 24 h. Concurrently, the complete medium was replaced with a maintenance medium containing only 1% FBS. Subsequently, the viability of each cell line using the MTT Cell Proliferation and Cytotoxicity Assay Kit according to the manufacturer's instructions was assessed. […] For the CRC cell line CT26, it was calculated the CC50 value using two peptides (pACP1780 and pACP2283) with relevant data presented in Table S6 (Supporting Information). The calculation was performed using an online tool: https://www.aatbio.com/tools/ic50‐calculator.

CT26 = test: MTT primary screening of anticancer activity, CT26; type: cell-based, Murine
From the text: as §1, §2

Hela = test: MTT primary screening of anticancer activity, Hela; type: cell-based, Human
From the text: as §1, §2

EFM192A = test: MTT primary screening of anticancer activity, EFM192A; type: cell-based
From the text: as §1, §2

MDA-MB-453 = test: MTT primary screening of anticancer activity, MDA-MB-453; type: cell-based
From the text: as §1, §2

MDA-MB-468 = test: MTT primary screening of anticancer activity, MDA-MB-468; type: cell-based
From the text: as §1, §2

T47D = test: MTT primary screening of anticancer activity, T47D; type: cell-based
From the text: as §1, §2

MCF7 = test: MTT primary screening of anticancer activity, MCF7; type: cell-based
From the text: as §1, §2

HCT116 = test: MTT primary screening of anticancer activity, HCT116; type: cell-based, Human
From the text: as §1, §2

BT474 = test: MTT primary screening of anticancer activity, BT474; type: cell-based
From the text: as §1, §2

Caco2 = test: MTT primary screening of anticancer activity, Caco2; type: cell-based, Human
From the text: as §1, §2

HT29 = test: MTT primary screening of anticancer activity, HT29; type: cell-based, Human
From the text: as §1, §2

LCC = test: MTT primary screening of anticancer activity, LCC; type: cell-based
From the text: as §1, §2

B16 = test: MTT primary screening of anticancer activity, B16; type: cell-based, Mouse
From the text: as §1, §2

SK-BR-3 = test: MTT primary screening of anticancer activity, SK-BR-3; type: cell-based
From the text: as §1, §2

MDA-MB-231 = test: MTT primary screening of anticancer activity, MDA-MB-231; type: cell-based
From the text: as §1, §2

Row | Sequence | Survival rate of cancer cells in primary screening (MDA-MB-436) | Survival rate of cancer cells in primary screening (CT26) | Survival rate of cancer cells in primary screening (Hela) | Survival rate of cancer cells in primary screening (EFM192A) | Survival rate of cancer cells in primary screening (MDA-MB-453) | Survival rate of cancer cells in primary screening (MDA-MB-468) | Survival rate of cancer cells in primary screening (T47D) | Survival rate of cancer cells in primary screening (MCF7) | Survival rate of cancer cells in primary screening (HCT116) | Survival rate of cancer cells in primary screening (BT474) | Survival rate of cancer cells in primary screening (Caco2) | Survival rate of cancer cells in primary screening (HT29) | Survival rate of cancer cells in primary screening (LCC) | Survival rate of cancer cells in primary screening (B16) | Survival rate of cancer cells in primary screening (SK-BR-3) | Survival rate of cancer cells in primary screening (MDA-MB-231)
1 | GVPMGSVIKKRRKRMAKKKHRKLLRKTRHQRRNKK [pACP593] | 1.00 | 1.00 | 0.74 | 1.00 | 0.63 | 1.00 | 0.71 | 1.00 | 1.00 | 0.78 | 1.00 | 1.00 | 1.00 | 1.00 | 1.00 | 1.00
2 | GWKKSQCCRNGFYRERGQQQAKNFMSQESFPVRENGE [pACP602] | 1.00 | 1.00 | 1.00 | 1.00 | 1.00 | 1.00 | 0.70 | 0.77 | 1.00 | 1.00 | 1.00 | 1.00 | 1.00 | 0.80 | 1.00 | 1.00
3 | HPGCRKAPGCLCTGVIPSAAIPGTGFEIGGAGCFPLALNCNCATLGKV [pACP631] | 1.00 | 1.00 | 1.00 | 1.00 | 1.00 | 1.00 | 0.79 | 1.00 | 1.00 | 1.00 | 1.00 | 1.00 | 1.00 | 0.76 | 1.00 | 1.00
4 | IPNKKAGSRCLSKKCLLPAKRAFEIHFLTQLTGDIKGI [pACP766] | 0.52 | 1.00 | 0.68 | 1.00 | 1.00 | 1.00 | 0.61 | 0.59 | 1.00 | 0.71 | 0.68 | 0.47 | 1.00 | 1.00 | 1.00 | 1.00
5 | IYRKGTCADCAQGGVCTGHCSNKKTCAALKGVDKIAEDLGRGIK [pACP822] | 1.00 | 1.00 | 1.00 | 1.00 | 1.00 | 1.00 | 0.63 | 0.78 | 1.00 | 1.00 | 1.00 | 1.00 | 1.00 | 0.69 | 1.00 | 1.00
6 | KFCSSFFKSLQFPKAETLVGFKGKALKISNVLIKKSPIIK [pACP860] | 1.00 | 1.00 | 0.78 | 1.00 | 1.00 | 0.60 | 0.75 | 0.78 | 1.00 | 0.70 | 1.00 | 1.00 | 1.00 | 0.77 | 1.00 | 1.00
7 | KGVRGKICKGKRCKQISNSGCDRQEIQEKQENRYRKEKQNKG [pACP886] | 1.00 | 1.00 | 0.73 | 1.00 | 1.00 | 1.00 | 0.69 | 1.00 | 1.00 | 1.00 | 1.00 | 1.00 | 1.00 | 0.78 | 1.00 | 1.00

From PMC10477861, “Efficient Mining of Anticancer Peptides from Gut Metagenome” (Advanced Science, 2023)
